This note sets out measurements from patent US10189785B2, “Heterocyclic compound” (TAKEDA PHARMACEUTICAL COMPANY LIMITED, priority 2015, dated 2019).

Each structure is given as a SMILES string.

What is called inhibition is the change of the read-out against control, counted positive when it falls.

Assay [1] concerns human leukemia cell line PL-21 cancer-bearing mice. Kind of assay: Antitumor test using PL-21 cell (Test Example 3). In kind it is in vivo, mouse. The method, then: The compound of the present invention was evaluated for its antitumor effect on human leukemia cell line PL-21 cancer-bearing mice by the following method.
The human leukemia cell line PL-21 (JCRB) was transplanted to each 6-week-old Icr-scid female mouse (CLEA Japan Inc.) by the subcutaneous injection of 3.0×10^6 cells. The tumor size of successfully engrafted tumor was measured 13 days after the transplantation. The tumor volume was calculated according to the following expression: Tumor volume=Major axis×Minor axis×Minor axis×(½)
Individuals in which the volume of the engrafted tumor reached 100 to 150 mm^3 were selected and used in the experiment as groups each involving 5 or 6 individuals. A 0.5% methylcellulose suspension of each test compound was orally administered to each mouse using the dose (indicated by single dose), the number of doses and the dosing period shown in Table 5. The tumor sizes at the day before the start of the administration and one day after the completion of the administration were measured and the tumor volume was calculated.
The rate of tumor growth (T/C (%)) in the test compound administration group compared with a control administration group was calculated according to the following expression: T/C (%)=(Tumor volume after the completion of the administration of the test compound administration group−Tumor volume before the start of the administration of the test compound administration group)/(Tumor volume after the completion of the administration of the control administration group−Tumor volume before the start of the administration of the control administration group)×100

The test system of assay [2] is lung adenocarcinoma cell line HCC4006. Kind of assay: HCC4006 cell growth inhibition test (Test Example 2). It is filed as cell-based. The note with it: 1 μM test compound, HCC4006 cells, culture for 5 days, CellTiter-Glo; for inhibition at 1 µM: Homo sapiens, 120 h, read-out: Rate of inhibition (%) at 1 μM. The procedure, abridged: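 HCC4006 cells in RPMI-1640 with 10% FBS were seeded at 250 cells/well and dosed with compound the next day. After 5 days, viability was read by CellTiter-Glo luminescence. Percent inhibition was calculated against no-compound control and cell-free blank.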
On the technique in general: ATP-based viability assays read luminescence as a measure of living cells.

For assay [3], the target named is T1, SPT (SPT2-expressing membrane fraction: human SPT1, human SPT2 and human ssSPTa) (Homo sapiens, UniProt O15269+O15270).
T1 construct: Full-length human SPT1, human SPT2 and human ssSPTa used; made in house; host or cells: FreeStyle 293 cells (pcDNA3.1 vectors, cotransfection); crude membrane fraction used
T1 sequence (O15269 1-473): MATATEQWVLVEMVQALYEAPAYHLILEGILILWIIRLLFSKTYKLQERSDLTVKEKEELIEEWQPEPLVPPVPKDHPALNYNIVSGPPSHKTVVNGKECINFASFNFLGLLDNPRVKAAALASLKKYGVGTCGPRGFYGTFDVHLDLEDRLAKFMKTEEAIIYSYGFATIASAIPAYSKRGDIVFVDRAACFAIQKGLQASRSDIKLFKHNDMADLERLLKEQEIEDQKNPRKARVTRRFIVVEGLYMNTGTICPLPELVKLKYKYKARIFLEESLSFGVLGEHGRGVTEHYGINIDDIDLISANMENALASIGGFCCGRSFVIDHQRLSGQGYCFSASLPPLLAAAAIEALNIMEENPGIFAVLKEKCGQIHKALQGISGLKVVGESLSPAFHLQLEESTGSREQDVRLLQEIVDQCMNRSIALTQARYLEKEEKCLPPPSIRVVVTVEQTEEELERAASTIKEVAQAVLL
T1 sequence (O15270 1-562): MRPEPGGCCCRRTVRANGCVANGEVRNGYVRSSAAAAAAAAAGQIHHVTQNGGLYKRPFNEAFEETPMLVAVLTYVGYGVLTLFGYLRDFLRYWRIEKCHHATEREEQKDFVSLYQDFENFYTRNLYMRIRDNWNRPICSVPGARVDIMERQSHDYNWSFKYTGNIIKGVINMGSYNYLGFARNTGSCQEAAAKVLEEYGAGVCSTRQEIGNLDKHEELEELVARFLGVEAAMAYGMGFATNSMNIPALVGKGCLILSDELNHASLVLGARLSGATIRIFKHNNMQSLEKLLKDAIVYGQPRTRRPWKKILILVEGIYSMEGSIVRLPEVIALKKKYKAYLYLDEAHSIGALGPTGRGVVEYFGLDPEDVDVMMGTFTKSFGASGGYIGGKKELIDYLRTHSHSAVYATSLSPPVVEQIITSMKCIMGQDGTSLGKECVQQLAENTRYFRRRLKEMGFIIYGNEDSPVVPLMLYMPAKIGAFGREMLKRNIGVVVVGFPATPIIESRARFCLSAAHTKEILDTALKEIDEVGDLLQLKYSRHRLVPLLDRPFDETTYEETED
T1 sequence (Q969W0 1-71 partner): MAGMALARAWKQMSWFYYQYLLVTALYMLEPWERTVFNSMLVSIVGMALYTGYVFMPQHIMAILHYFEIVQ
The experiment in a line: SPT enzyme inhibition test (Test Example 1). It is filed as biochemical. Conditions: for inhibition at 1 µM: read-out: Rate of inhibition (%) at 1 μM. The essentials: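 Membrane fraction (100 μg/mL stock) of cells expressing human SPT1, SPT2 and ssSPTa was preincubated 60 min at RT with compound in 100 mM Hepes pH 8.0 containing EDTA, DTT and 0.01% BSA. Reaction ran 15 min at RT with 2 mM L-serine and 20 μM palmitoyl CoA (solution concentrations), then formic acid quench. Product measured by RapidFire mass spectrometry against a C17-sphinganine internal standard, giving % inhibition.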

The mark [4] stands for this setting: 10 mg/kg orally, administered once every two days, 14 days.
Setting [5] is: 30 mg/kg orally, administered once every two days, 14 days.

As for `Cn1nc(C(F)(F)F)cc1C(=O)N[C@@H]1CCN(C(=O)c2cc(Cl)c3nccnc3c2)C[C@@H]1c1ccccc1` [Example 81B, N-((3S,4R)-1-((8-Chloroquinoxalin-6-yl)carbonyl)-3-phenylpiperidin-4-yl)-1-methyl-3-(trifluoromethyl)-1H-pyrazole-5-carboxamide], the “T/C (%)” value in assay [1] (10 mg/kg orally, administered every day for 3 days, 4-day drug holiday, 2 cycles) was 16%; in assay [1] (setting [4]) it was 63%; in assay [1] (setting [5]) it was 32%. The inhibition at 1 µM in assay [2] is 54%.
In the case of `O=C(N[C@@H]1CCN(C(=O)c2cc(Cl)c3nccnc3c2)C[C@@H]1c1ccccc1)c1ncccc1C(F)(F)F` [Example 241B, N-((3S,4R)-1-((8-Chloroquinoxalin-6-yl)carbonyl)-3-phenylpiperidin-4-yl)-3-(trifluoromethyl)pyridine-2-carboxamide], the inhibition at 1 µM is 101% in assay [3] and 54% in assay [2].
For `COc1cc(C(=O)N2CC[C@@H](NC(=O)c3c(C)c(C)nn3C)[C@@H](c3ccccc3)C2)cc2nccnc12` [Example 324B, N-((3S,4R)-1-((8-methoxyquinoxalin-6-yl)carbonyl)-3-phenylpiperidin-4-yl)-1,3,4-trimethyl-1H-pyrazole-5-carboxamide], the inhibition at 1 µM turned out to be 99% in assay [3] and 49% in assay [2].
On to `COc1cc(C(=O)N2CC[C@@H](NC(=O)c3cc(C4CC4)nn3C)[C@@H](c3ccccc3)C2)cc2nccnc12` [Example 330B, 3-cyclopropyl-N-((3S,4R)-1-((8-methoxyquinoxalin-6-yl)carbonyl)-3-phenylpiperidin-4-yl)-1-methyl-1H-pyrazole-5-carboxamide], for which the inhibition at 1 µM in assay [3] was found to be 102%; in assay [2], 49%.
Take `CN(C)CCOc1ccc(C(=O)N[C@@H]2CCN(C(=O)c3cc(Cl)c4nccnc4c3)C[C@@H]2c2ccccc2)cn1` [Example 25B, N-((3S,4R)-1-((8-chloroquinoxalin-6-yl)carbonyl)-3-phenylpiperidin-4-yl)-6-(2-(dimethylamino)ethoxy) nicotinamide]: the “Rate of inhibition (%) at 1 μM” value in assay [3] (1 μM test compound, SPT2-expressing membrane fraction) stood at 100%; in assay [2] it was 53%.
Take `COc1ccc(C(=O)N2CCC(NC(=O)c3ccccc3Cl)c3c2cnn3CCC(C)(C)O)cc1OC` (stereo not shown) [Example 186A, 2-chloro-N-(4-(3,4-dimethoxybenzoyl)-1-(3-hydroxy-3-methylbutyl)-4,5,6,7-tetrahydro-1H-pyrazolo[4,3-b]pyridin-7-yl)benzamide]: the inhibition at 1 µM was found to be 101% in assay [3] and 47% in assay [2].
Regarding `COc1cc(C(=O)N2CC[C@@H](NC(=O)c3ncccc3C(F)(F)F)[C@@H](c3ccccc3)C2)cnc1OC` [Example 64B, N-((3S,4R)-1-((5,6-dimethoxypyridin-3-yl)carbonyl)-3-phenylpiperidin-4-yl)-3-(trifluoromethyl)pyridine-2-carboxamide], the inhibition at 1 µM stood at 100% in assay [3] and 49% in assay [2].
Consider `Cn1ncc(C(=O)N[C@@H]2CCN(C(=O)c3ccc4nccnc4c3)C[C@@H]2c2ccccc2)c1Cl` [Example 132B, 5-chloro-1-methyl-N-((3S,4R)-3-phenyl-1-(quinoxalin-6-ylcarbonyl)piperidin-4-yl)-1H-pyrazole-4-carboxamide], for which the values for the inhibition at 1 µM in assay [3] and in assay [2] were 98% and 45%, respectively.
As for `COc1cc(C(=O)N2CC[C@@H](NC(=O)c3ccccc3OC(F)(F)F)[C@@H](c3ccccc3)C2)cnc1OC` [Example 70B, N-((3S,4R)-1-((5,6-dimethoxypyridin-3-yl)carbonyl)-3-phenylpiperidin-4-yl)-2-(trifluoromethoxy)benzamide], the values for the inhibition at 1 µM in assay [3] and in assay [2] were 100% and 56%, respectively.
For the compound `COc1cc(C(=O)N2CC[C@H](NC(=O)c3ccccc3OC(F)(F)F)c3c2cnn3C(C)C)cnc1OC` [Example 162A, N-((7S)-4-((5,6-Dimethoxypyridin-3-yl)carbonyl)-1-isopropyl-4,5,6,7-tetrahydro-1H-pyrazolo[4,3-b]pyridin-7-yl)-2-(trifluoromethoxy)benzamide], the “T/C (%)” value amounted to 52% in assay [1] (setting [4]) and 38% in assay [1] (setting [5]). The inhibition at 1 µM in assay [2] amounted to 56%.
`CCn1ncc2c1C(NC(=O)c1ccc(Cl)cc1C(F)(F)F)CCN2C(=O)c1cnc(OC)c(OC)c1` (stereo not shown) [Example 153A, 4-Chloro-N-(4-((5,6-dimethoxypyridin-3-yl)carbonyl)-1-ethyl-4,5,6,7-tetrahydro-1H-pyrazolo[4,3-b]pyridin-7-yl)-2-(trifluoromethyl)benzamide]: the inhibition at 1 µM in assay [3] was 101%; in assay [2], 53%.
